The values that follow come from PMC6315989, “Red-Shifted FRET Biosensors for High-Throughput Fluorescence Lifetime Screening” (Biosensors, 2018).

For test [1], the target named is T1, human cardiac calcium pump (SERCA2a) (Homo sapiens, UniProt P16615). As to the kind of experiment: 2CS (O/M, OFP/MFP) red-shifted FRET fluorescence lifetime biosensor in living HEK293 cells. The format is cell-based. The method, then: (§1) HEK293 (originally derived from human embryonic kidney) cells were maintained in phenol red-free DMEM from Gibco (Waltham, MA, USA) supplemented with 2 mM GlutaMAX (Gibco), 10% fetal bovine serum (FBS), from Atlanta Biologicals (Lawrenceville, GA, USA), and 1 IU/mL penicillin/streptomycin (Gibco) and grown at 37 °C with 5% CO2. HEK293 cell lines were used to generate stable clones overexpressing the FRET-based biosensors (containing both donor and acceptor) and corresponding donor-only and acceptor-only control cell lines. Three days prior to screening, the stable cell lines were expanded into T225 flasks from Corning Inc. (Corning, NY, USA). On each day of screening and FRET hit retesting, approximately 30 million cells were harvested by treatment of Tryple from Invitrogen (Carlsbad, CA, USA), washed three times in phosphate buffer solution (PBS) with no magnesium or calcium from Thermo Scientific (Waltham, MA, USA) by centrifugation at 300 g, filtered using 70 µm cell strainers (Corning), and diluted to 10^6 cells/mL using an automated countess cell counter (Invitrogen). On each day of screening, cell viability was assessed using the trypan blue assay and found to be above 95% viable. After resuspension and dilution in PBS, the cells were continuously and gently stirred using a magnetic stir bar at room temperature, keeping the cells in suspension and evenly distributed to avoid clumping. Subcellular localization of each biosensor was evaluated using an Olympus FluoView FV1000 IX2 (Tokyo, Japan) Inverted Confocal microscope with FLIM detector. GFP and RFP signals were assessed using 473 and 561 nm laser excitation, respectively. Cell nuclei were identified by staining with DAPI, using 405 nm laser excitation.
(§2) Cells and compound mixtures were dispensed into 1536-well flat, black-bottom polypropylene plates from Greiner (Kremsmünste, Austria). Compounds were dispensed using either an automated Echo acoustic liquid dispenser from Labcyte (Sunnyvale, CA, USA) or a Mosquito liquid dispenser from TTP Labtech (Melbourn, UK). Cells were dispensed at room temperature using a Multidrop Combi liquid dispenser from Thermo (Pittsburg, PA, USA), at a density of 10^6 cells/mL, either 30 or 120 min before screening. For screening, cells were dispensed into assay plates containing the 1280-compund LOPAC (Library of Pharmacologically Active Compounds, from Invitrogen), dissolved in DMSO. The final DMSO concentration was <1%, and control wells were prepared containing cells and matching [DMSO]. The same methods were applied for subsequent FRET testing of the reproducible hits identified in the pilot screen. Reproducible FRET hits for retesting were purchased from Tocris (Minneapolis, MN, USA) or Invitrogen (Carlsbad, CA, USA), depending on their availability.
(§3) An in-depth description of the fluorescence instrumentation has previously been described in detail and can be found in our previous publication. The current instrument has been updated to a high-density microplate format (1536 wells, 5 μL/well), acquiring data from a full plate in less than three minutes with lifetime measurement precision (standard deviation/mean) of 1% or better. Fluorescence decay waveforms (with upper-end specifications of […] resolution, 640 data points over 128 ns range) for FLT determination were detected directly as previously described, except that two different light sources were used for GFP and OFP. In both cases, fluorescence was excited with a pulsed microchip laser producing nanosecond-wide pulses. As previously described for GFP, a 473 nm laser (Bright Solutions, Via degli Artigiani, Italy) was used, delivering pulses of ~1 μJ energy at a 5 kHz repetition rate. For OFP, a 532 nm laser (Teem Photonics SNG-20F-100, Meylan, France) was used, delivering pulses of ~0.3 μJ energy at a 20 kHz repetition rate. […]

For test [2], the target named is T1, human cardiac calcium pump (SERCA2a). As to the kind of experiment: 2CS (G/R, GFP/RFP) FRET fluorescence lifetime biosensor in living HEK293 cells. Format: cell-based. Set-up: expressed in transfected cells. The method, then: as §1, §2, §3
The target of test [3] is T2, SERCA1a (Oryctolagus cuniculus, UniProt P04191).
T2 construct: sarcoplasmic reticulum vesicles prepared from rabbit skeletal muscle (SERCA1a); from tissue; host or cells: rabbit skeletal muscle sarcoplasmic reticulum vesicles
As to the kind of experiment: Enzyme-coupled NADH-linked SERCA ATPase activity assay, skeletal SR vesicles. Format: biochemical, rabbit. The procedure: (§4) Functional assays were performed using sarcoplasmic reticulum vesicles prepared from rabbit skeletal muscle (SERCA1a) and pig cardiac muscle (SERCA2a). An enzyme-coupled, NADH-linked ATPase assay was used to measure SERCA ATPase activity in 96-well microplates. Each well contained 50 mM MOPS (pH 7.0), 100 mM KCl, 5 mM MgCl2, 1 mM EGTA, 0.2 mM NADH, 1 mM phosphoenol pyruvate, 10 IU/mL of pyruvate kinase, 10 IU/mL of lactate dehydrogenase, 1 µM of the calcium ionophore A23187 from Sigma (St. Louis, MO, USA), and CaCl2 added to set free [Ca^2+] to 10 μM [23]; 4 μg/mL of SR vesicle, calcium, compound, and assay mix were incubated for 20 min. The assay was started upon the addition of ATP, at a final concentration of 5 mM (total volume to 200 μL), and the rate of decrease in NADH absorbance at 340 nm was determined using a SpectraMax Plus microplate spectrophotometer (Molecular Devices, Sunnyvale, CA, USA).

Test [4] relates to donor-only controls and donor-acceptor "null" linker constructs. The test can be described thus: Control biosensors (donor-only 1CS and donor-acceptor null linker) lifetime CRC in HEK293 cells. Format: cell-based, human. The settings on record: G/R and O/M control cell lines. The method, then:
HEK293 (originally derived from human embryonic kidney) cells were maintained in phenol red-free DMEM from Gibco (Waltham, MA, USA) supplemented with 2 mM GlutaMAX (Gibco), 10% fetal bovine serum (FBS), from Atlanta Biologicals (Lawrenceville, GA, USA), and 1 IU/mL penicillin/streptomycin (Gibco) and grown at 37 °C with 5% CO2. HEK293 cell lines were used to generate stable clones overexpressing the FRET-based biosensors (containing both donor and acceptor) and corresponding donor-only and acceptor-only control cell lines. Three days prior to screening, the stable cell lines were expanded into T225 flasks from Corning Inc. (Corning, NY, USA). […] On each day of screening, cell viability was assessed using the trypan blue assay and found to be above 95% viable. […] Subcellular localization of each biosensor was evaluated using an Olympus FluoView FV1000 IX2 (Tokyo, Japan) Inverted Confocal microscope with FLIM detector. GFP and RFP signals were assessed using 473 and 561 nm laser excitation, respectively. […]
An in-depth description of the fluorescence instrumentation has previously been described in detail and can be found in our previous publication. […] Fluorescence decay waveforms (with upper-end specifications of […] resolution, 640 data points over 128 ns range) for FLT determination were detected directly as previously described, except that two different light sources were used for GFP and OFP. In both cases, fluorescence was excited with a pulsed microchip laser producing nanosecond-wide pulses. […] These filters were selected to exclude acceptor fluorescence, as only the lifetime of the donor fluorescent protein is required to calculate FRET (Equation (1)). […] The observed time-resolved fluorescence waveform was analyzed as described previously, assuming a single-exponential decay, to determine the fluorescence lifetimes (FLT) for control samples containing donor only (τD) and FRET biosensor samples containing donor plus acceptor (τDA). FRET efficiency was calculated from (1) FRET=1−(τDA/τD) […]

The target of test [5] is T3, SERCA2a (Sus scrofa, UniProt P11607).
T3 construct: rabbit skeletal muscle (SERCA1a) and pig cardiac muscle (SERCA2a); from tissue; host or cells: pig cardiac muscle sarcoplasmic reticulum vesicles
The test can be described thus: Enzyme-coupled NADH-linked SERCA ATPase activity assay, cardiac SR vesicles. Format: biochemical, pig. The method, then:
as §4

Setting [6] is: known SERCA inhibitors, concentration-response curve, live HEK293 cells, 532 nm excitation, read-out: EC50 of lifetime change, h2CS2a (O/M).
Where [7] appears, read: known SERCA inhibitors, concentration-response curve, live HEK293 cells, 473 nm excitation, read-out: EC50 of lifetime change, h2CS2a (G/R).
Setting [8] is: LOPAC hits, 16-point CRC, Hill fit, apparent EC50 for FPL 64176 (no saturation), read-out: EC50 of lifetime change, 2CS (OFP/MFP).
Where [9] appears, read: LOPAC hits, 16-point CRC, Hill fit, apparent EC50 for FPL 64176 (no saturation), read-out: EC50 of lifetime change, 2CS (GFP/RFP).
[10] abbreviates: mean ± SD, concentration-response curve.

SMILES strings stand for the structures. Values joined by “and” are separate entries in the source; they are usually repeats but may differ in a detail not shown here. Equal entries are not always repeated.

T1 sequence (P16615 1-997 isoform P16615-2): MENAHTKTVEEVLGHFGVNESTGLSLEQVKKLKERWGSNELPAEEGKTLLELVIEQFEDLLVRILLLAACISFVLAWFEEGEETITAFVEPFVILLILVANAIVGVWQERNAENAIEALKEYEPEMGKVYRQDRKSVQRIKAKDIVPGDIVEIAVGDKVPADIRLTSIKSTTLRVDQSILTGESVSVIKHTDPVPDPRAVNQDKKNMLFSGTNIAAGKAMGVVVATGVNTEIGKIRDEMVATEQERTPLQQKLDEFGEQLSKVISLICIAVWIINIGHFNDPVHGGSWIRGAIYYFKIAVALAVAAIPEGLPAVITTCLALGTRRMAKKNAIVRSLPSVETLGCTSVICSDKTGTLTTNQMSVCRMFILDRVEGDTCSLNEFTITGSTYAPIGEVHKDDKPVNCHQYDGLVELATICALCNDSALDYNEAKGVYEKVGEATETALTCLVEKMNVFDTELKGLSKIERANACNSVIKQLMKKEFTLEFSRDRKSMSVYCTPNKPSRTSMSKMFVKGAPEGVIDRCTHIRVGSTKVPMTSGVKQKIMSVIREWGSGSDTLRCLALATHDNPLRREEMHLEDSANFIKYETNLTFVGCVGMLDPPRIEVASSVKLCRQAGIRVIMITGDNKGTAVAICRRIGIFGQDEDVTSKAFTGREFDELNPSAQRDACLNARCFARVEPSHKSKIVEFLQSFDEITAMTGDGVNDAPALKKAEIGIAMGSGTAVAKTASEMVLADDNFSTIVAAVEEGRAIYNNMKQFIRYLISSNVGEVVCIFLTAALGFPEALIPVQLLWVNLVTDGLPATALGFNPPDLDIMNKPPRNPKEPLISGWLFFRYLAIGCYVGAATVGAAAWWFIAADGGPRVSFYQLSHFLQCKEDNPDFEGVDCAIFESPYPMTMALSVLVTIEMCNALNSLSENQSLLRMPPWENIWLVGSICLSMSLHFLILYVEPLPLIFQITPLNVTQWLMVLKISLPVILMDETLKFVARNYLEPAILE
T3 sequence (P11607 1-997 isoform P11607-2): as the sequence (P16615 1-997 isoform P16615-2) above, with R371K, N403K, S538P, L570M, H576N, D667E, A713S, S865T, I889V, V963L counted along it
T2 sequence (P04191 1-994 isoform P04191-2): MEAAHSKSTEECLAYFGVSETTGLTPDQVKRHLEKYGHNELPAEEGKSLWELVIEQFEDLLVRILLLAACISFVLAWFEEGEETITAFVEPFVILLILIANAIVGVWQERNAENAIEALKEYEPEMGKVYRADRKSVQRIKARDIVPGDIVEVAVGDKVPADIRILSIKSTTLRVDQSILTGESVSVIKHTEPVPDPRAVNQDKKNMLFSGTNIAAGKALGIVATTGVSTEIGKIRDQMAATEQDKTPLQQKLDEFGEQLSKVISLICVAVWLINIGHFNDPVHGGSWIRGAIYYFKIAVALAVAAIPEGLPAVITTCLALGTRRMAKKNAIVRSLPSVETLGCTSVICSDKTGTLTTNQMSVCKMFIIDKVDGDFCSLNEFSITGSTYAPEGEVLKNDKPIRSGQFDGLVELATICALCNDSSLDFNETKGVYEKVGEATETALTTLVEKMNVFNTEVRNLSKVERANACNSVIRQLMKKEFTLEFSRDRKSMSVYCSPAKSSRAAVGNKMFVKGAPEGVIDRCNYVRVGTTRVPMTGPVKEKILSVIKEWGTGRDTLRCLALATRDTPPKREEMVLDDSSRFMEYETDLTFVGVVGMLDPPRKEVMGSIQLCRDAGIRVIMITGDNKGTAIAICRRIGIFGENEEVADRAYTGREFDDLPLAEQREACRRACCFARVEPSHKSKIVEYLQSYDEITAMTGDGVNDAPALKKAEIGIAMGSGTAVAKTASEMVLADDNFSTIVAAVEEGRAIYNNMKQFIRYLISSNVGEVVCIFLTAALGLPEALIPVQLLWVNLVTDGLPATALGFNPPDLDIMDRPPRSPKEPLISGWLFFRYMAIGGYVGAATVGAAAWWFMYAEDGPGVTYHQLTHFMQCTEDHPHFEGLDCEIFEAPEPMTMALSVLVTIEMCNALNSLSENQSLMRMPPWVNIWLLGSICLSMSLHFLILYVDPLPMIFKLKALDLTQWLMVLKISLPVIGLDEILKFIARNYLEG

Take `CC(=O)C1=C(O)[C@@H]2[C@H]3c4c[nH]c5cccc(c45)C[C@H]3C(C)(C)N2C1=O` [CPA, cyclopiazonic acid]: the EC50 in test [1] (setting [6]) was determined as 0.626 µM; in test [2] (setting [7]), 0.715 µM.

For the molecule `COC(=O)c1c(C)[nH]c(C)c1C(=O)c1ccccc1Cc1ccccc1` [FPL 64176], in test [1] (16-point CRC), the “FRET (lifetime) response in CRC, 2CS (O/M)” value is “did not saturate at the highest concentrations”. The EC50 in test [1] (setting [8]) was 21.1 µM and 21 µM; in test [2] (setting [9]), 26.5 µM and 26 µM. For the same molecule, the “effect on Ca-dependent ATPase activity, SERCA1a” value in test [3] (CRC, free Ca2+ 10 μM) was “biphasic ATPase activation”. For the same molecule, in test [4], the “effect on FRET/lifetime of donor-only and null-linker controls” value (from here on “effect on FRET/lifetime”) was “no significant effect on FRET”. The “effect on Ca-dependent ATPase activity, SERCA2a” value in test [5] (CRC, free Ca2+ 10 μM) is listed as “biphasic ATPase activation”. The “ATPase activation of SERCA2a in comparison to SERCA1a (EC50 and % change)” value in test [5] (cardiac versus skeletal isoform) is on record as “significantly more effective”. The “FRET (lifetime) response in CRC, 2CS (G/R)” value in test [2] (16-point CRC) is “did not saturate at the highest concentrations”.

In the case of `Oc1ccc2ccccc2c1SSc1c(O)ccc2ccccc12` [IPA3], the “concentration at which FRET abruptly and significantly decreased, 2CS (O/M)” value in test [1] (non-sigmoidal CRC) was “approximately 10 μM”. For the same molecule, the IC50 – broadly, the concentration that gives 50% inhibition – in test [3] (CRC, free Ca2+ 10 μM, read-out: apparent EC50 (IC50) of ATPase inhibition, SERCA1a) came out at 9.5 µM; in test [5] (CRC, free Ca2+ 10 μM, read-out: apparent EC50 (IC50) of ATPase inhibition, SERCA2a), 8 µM. Also, the “effect on FRET/lifetime” value in test [4] is recorded as “significant concentration-dependent changes in fluorescence lifetime”. Moreover, the “concentration at which FRET abruptly and significantly decreased, 2CS (G/R)” value in test [2] (non-sigmoidal CRC) is “approximately 10 μM”.

`c1ccc(C(NCc2cccnc2)(c2ccccc2)c2ccccc2)cc1` [UCL 2077, 3-(triphenylmethylaminomethyl)pyridine]: the EC50 in test [1] (setting [8]) is 7.2 µM; in test [2] (setting [9]), 13.8 µM. In test [3] (CRC, free Ca2+ 10 μM), the “effect on Ca-dependent ATPase activity, SERCA1a” value is “biphasic”. Moreover, in test [3] (biphasic CRC), the “compound concentration at which ATPase activity peaked, SERCA1a” value is given as “around 3 micromolar”. Also, the “effect on FRET/lifetime” value in test [4] is reported as “no significant effect on FRET”. For the same molecule, the “effect on Ca-dependent ATPase activity, SERCA2a” value in test [5] (CRC, free Ca2+ 10 μM) is listed as “biphasic”. In test [5] (biphasic CRC), the “compound concentration at which ATPase activity peaked, SERCA2a” value was “around 3 micromolar”.

With `C/C=C(/C)C(=O)O[C@H]1C(C)=C2[C@H]([C@@H]1OC(=O)CCCCCCC)[C@@](C)(OC(C)=O)C[C@H](OC(=O)CCC)[C@@]1(O)[C@H]2OC(=O)[C@@]1(C)O` [thapsigargin], the EC50 in test [1] (setting [6]) came out at 0.0022 ± 0.0013 µM; in test [2] (setting [7]), 0.0044 ± 0.0012 µM. Moreover, the “lifetime change Δτ at saturating compound, h2CS2a (O/M)” value in test [1] (setting [10]) was found to be 258 ± 12 ps. In addition, in test [2] (setting [10]), the “lifetime change Δτ at saturating compound, h2CS2a (G/R)” value is 136 ± 10 ps.
